Each block holds one molecule with its values, some of them ahead of it.
Assays:
[1] = target: T1, SmoEFGK (Sinorhizobium meliloti, UniProt Q92N02); assay: […]-mannitol uptake competition, intact cells; assay type: cell-based; conditions: 2 µM 14C-mannitol as tracer, mannitol-grown wild-type Rm1021
T1 construct: gene smoE; native ABC transporter in intact S. meliloti Rm1021 cells grown on mannitol; smoK::Tn5-B20 mutant as control; with ABC transporter, sorbitol/mannitol permease SmoF; ABC transporter, sorbitol/mannitol permease SmoG

[2] = target: T2, MtlK (Sinorhizobium meliloti, UniProt Q92N07); assay: in-gel dehydrogenase activity stain, native PAGE; assay type: biochemical; conditions: NAD+, phenazine methosulfate, nitro blue tetrazolium; cell extract
T2 construct: full length from plasmid pJD02 (mtlK/pCO37) in S. meliloti smoS mutant; cell extract, native gel

[3] = target: T3, SmoS (Sinorhizobium meliloti, UniProt Q92N06); assay: in-gel dehydrogenase activity stain, native PAGE; assay type: biochemical; conditions: sorbitol as substrate, phenazine methosulfate, nitro blue tetrazolium; cell extract
T3 construct: full length from plasmid pSMc01500 (smoS/pCO37) in S. meliloti smoS mutant; cell extract, native gel

[4] = target: T4, Frk (Sinorhizobium meliloti, UniProt Q92SC5); assay: PK/LDH-coupled kinase assay, […] nm; assay type: biochemical; conditions: 6 mM fructose, 3 mM ATP, 6 mM MgCl2, HEPES pH 7.5; partially purified
T4 construct: N-terminal 6xHis tag, expressed from pMK48 (pRK7813) in S. meliloti Rm1021, partially purified on Ni-NTA
T4 sequence (Q92SC5 1-308): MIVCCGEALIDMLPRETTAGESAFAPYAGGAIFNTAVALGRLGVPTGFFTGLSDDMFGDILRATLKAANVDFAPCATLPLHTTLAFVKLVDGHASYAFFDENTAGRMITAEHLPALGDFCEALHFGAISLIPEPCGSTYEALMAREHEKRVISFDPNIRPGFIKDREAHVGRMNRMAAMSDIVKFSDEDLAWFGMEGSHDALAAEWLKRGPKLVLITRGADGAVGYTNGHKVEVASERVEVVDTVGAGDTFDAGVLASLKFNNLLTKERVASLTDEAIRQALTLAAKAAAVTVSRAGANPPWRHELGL

[5] = target: T1, SmoEFGK; assay: […]-mannitol uptake competition, intact cells; assay type: cell-based; conditions: 2 µM 14C-mannitol as tracer, 10 µM unlabelled maltitol; mannitol-grown wild-type Rm1021
[6] = target: T1, SmoEFGK; assay: […]-mannitol uptake, wild type against smoK mutant; assay type: cell-based; conditions: labelled compound, 2 µM; cells grown in mannitol and glucose

T1 sequence (Q92N03 entry or part of it): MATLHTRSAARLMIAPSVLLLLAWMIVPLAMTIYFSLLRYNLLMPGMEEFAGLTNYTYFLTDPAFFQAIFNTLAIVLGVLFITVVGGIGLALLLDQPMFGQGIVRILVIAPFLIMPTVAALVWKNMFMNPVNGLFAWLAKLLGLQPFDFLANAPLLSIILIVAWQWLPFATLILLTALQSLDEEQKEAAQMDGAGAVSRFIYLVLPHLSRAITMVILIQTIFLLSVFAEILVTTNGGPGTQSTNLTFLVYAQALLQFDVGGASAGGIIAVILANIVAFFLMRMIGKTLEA
T1 sequence (Q92N04 entry or part of it, further chain): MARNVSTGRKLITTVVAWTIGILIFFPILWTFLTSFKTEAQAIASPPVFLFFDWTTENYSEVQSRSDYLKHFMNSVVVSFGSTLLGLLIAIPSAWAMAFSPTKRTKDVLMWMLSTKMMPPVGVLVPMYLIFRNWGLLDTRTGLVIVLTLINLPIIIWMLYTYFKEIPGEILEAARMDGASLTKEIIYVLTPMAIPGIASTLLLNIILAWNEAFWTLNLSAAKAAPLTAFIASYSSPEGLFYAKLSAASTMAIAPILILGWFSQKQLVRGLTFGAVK
T1 sequence (Q92N02 entry or part of it): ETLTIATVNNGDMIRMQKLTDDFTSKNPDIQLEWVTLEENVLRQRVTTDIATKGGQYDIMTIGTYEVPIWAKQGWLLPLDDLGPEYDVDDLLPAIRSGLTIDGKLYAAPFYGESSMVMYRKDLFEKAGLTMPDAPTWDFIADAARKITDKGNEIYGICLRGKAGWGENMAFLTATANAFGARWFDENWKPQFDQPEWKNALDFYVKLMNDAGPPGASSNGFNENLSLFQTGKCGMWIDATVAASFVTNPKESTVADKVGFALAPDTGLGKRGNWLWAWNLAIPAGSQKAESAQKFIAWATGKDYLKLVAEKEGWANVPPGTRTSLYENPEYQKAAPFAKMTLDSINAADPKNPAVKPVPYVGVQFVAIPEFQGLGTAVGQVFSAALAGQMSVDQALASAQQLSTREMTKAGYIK
T1 sequence (Q92N05 entry or part of it, further chain): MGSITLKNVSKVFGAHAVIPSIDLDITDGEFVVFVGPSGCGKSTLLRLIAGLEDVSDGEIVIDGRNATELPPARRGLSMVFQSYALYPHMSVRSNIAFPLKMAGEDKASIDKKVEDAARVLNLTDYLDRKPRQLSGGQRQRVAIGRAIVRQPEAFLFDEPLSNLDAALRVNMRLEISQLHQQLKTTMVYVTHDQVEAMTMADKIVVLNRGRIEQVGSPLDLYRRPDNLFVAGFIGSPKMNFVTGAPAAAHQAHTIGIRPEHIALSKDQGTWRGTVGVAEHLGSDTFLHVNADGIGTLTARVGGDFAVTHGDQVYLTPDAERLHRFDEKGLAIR
T3 sequence (Q92N06 entry or part of it): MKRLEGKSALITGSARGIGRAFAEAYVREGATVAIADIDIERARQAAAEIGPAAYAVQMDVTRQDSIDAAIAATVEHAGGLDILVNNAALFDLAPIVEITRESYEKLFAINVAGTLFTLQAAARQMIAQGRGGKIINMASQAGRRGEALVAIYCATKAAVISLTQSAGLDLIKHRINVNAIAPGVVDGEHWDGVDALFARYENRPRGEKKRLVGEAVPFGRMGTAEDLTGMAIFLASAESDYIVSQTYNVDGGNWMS
T2 sequence (Q92N07 entry or part of it): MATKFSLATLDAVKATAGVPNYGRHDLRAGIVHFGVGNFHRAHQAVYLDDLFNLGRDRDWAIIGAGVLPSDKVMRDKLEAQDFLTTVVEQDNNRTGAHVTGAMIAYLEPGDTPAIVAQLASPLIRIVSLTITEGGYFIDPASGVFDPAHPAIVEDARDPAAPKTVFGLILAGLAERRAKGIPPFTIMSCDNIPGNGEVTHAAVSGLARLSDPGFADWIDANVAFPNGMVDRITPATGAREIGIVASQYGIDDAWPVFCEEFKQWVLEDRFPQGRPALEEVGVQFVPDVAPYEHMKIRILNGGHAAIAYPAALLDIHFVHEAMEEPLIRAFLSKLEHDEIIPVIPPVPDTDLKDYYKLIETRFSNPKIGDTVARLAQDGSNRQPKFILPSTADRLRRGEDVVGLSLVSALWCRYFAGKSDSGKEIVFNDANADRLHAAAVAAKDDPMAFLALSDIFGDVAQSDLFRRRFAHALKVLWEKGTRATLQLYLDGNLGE

- % reduction of uptake at 2 μM ([1]; 2 µM unlabelled D-arabitol): ~ 50%
SMILES: OC[C@@H](O)C(O)[C@H](O)CO [D-arabitol]
- in-gel dehydrogenase activity stain, native PAGE [2]: if D-arabitol was used as a substrate, bands that are coincident with what mannitol result

SMILES: NC(=O)c1ccc[n+]([C@@H]2O[C@H](COP(=O)(O)OP(=O)(O)OC[C@H]3O[C@@H](n4cnc5c(N)ncnc54)[C@H](O)[C@@H]3O)[C@@H](O)[C@H]2O)c1 [NAD^+]
- in-gel dehydrogenase activity stain, native PAGE [3]: smoS encodes an NAD^+-dependent sorbitol and galactitol dehydrogenase

SMILES: OCC1(O)OC[C@@H](O)[C@@H](O)[C@@H]1O (stereo partly shown) [fructose]
- PK/LDH-coupled kinase assay, 340 nm [4]: partially purified Frk was assayed for kinase activity using fructose as a substrate

- % reduction of uptake at 10 μM [5]: > 50%
SMILES: OC[C@@H](O)[C@@H](O[C@H]1O[C@H](CO)[C@@H](O)[C@H](O)[C@H]1O)[C@H](O)[C@@H](O)CO [maltitol]

SMILES: OC[C@@H](O)[C@@H](O)[C@H](O)[C@H](O)CO [mannitol]
- 14C-mannitol uptake, wild type against smoK mutant [6]: SRmD495 cells were severely compromised in their ability to transport mannitol

SMILES: OC[C@@H](O)[C@@H](O)[C@H](O)[C@@H](O)CO [sorbitol]
- % reduction of uptake at 2 μM ([1]; 2 µM unlabelled sorbitol): ~ 50%
